{
  "source": "patent US9862748B2",
  "about": "“Peptide compounds and methods of production and use thereof” (priority 2012, dated 2018)",
  "key": {"[1]": {"tested_on": "swine skin wounds", "assay": "Swine dermal wound model, histological evaluation", "assay_type": "in vivo", "conditions": "day 14 post-wounding", "description": "The characteristics that were measured are required to indicate features of a well-healed wound. Inflammation should be low and re-epithelialization high.\nFull thickness excisional wounds were induced on the dorsum of swine (N=3) using a 1.0 cm biopsy punch. Treatments were administered (0.20 ml) to each wound (N=6 wounds per group), and the wounds were dressed with standard occlusive dressing ([…]™, 3M Corporation, St. Paul, Minn.). Treatments were reapplied daily and dressings changed. Clinical wound healing observations and wound area (2 mm) measurements were performed on days 0, 3, 5, 7, 10, and 14 post-wounding. Wound area (2 mm) data were expressed as percentage (%) of wound healing. Animals were terminated on day 14 with wounds harvested and processed for histological evaluation. […] All peptide formulation treatment groups healed faster with greater rate of closure and re-epithelialization over time, as compared to the saline control (Group A).\nThe histology correlated with the clinical observations. […] There were minimal differences in the amount or character of granulation tissue, inflammation, and angiogenesis. All the wounds were well filled and vascularized."}, "[2]": {"tested_on": "corneas", "assay": "Corneal cytokines after intrastromal injection (MILLIPLEX MAP mouse cytokine assay)", "assay_type": "in vivo", "conditions": "intrastromal 0.5 μl, 10^−4, 10^−5, 10^−6 M; 24 and 48 hours", "description": "Corneas were injected intrastromally with 0.5 μl of peptide 95-122 at a final concentration of 10^−4 M, 10^−5 M, and 10^−6 M and vehicle (saline) control. Corneas were collected and flash frozen at 24 hours and 48 hours. Corneal lysates were analyzed for cytokines using the MILLIPLEX® MAP mouse cytokine assay for IL-7 (A), IL-15 (B), IFN-γ (C), MIP1-α (D) (EMD Millipore Corp., Billerica, Mass.). The means of independent experimental values are shown ±SEM. ***P<0.001, **P<0.01, *P<0.05 by unpaired t-test as compared to vehicle treated controls. […] Corneas were injected intrastromally with 0.5 μl of peptide 95-122 at a final concentration of 10^−4 M, 10^−5 M, and 10^−6 M and vehicle (saline) control. Corneas were collected and flash frozen at 24 hours and 48 hours. Corneal lysates were analyzed for cytokines using the MILLIPLEX® MAP mouse cytokine assay for MIP1-β (EMD Millipore Corp., Billerica, Mass.). **P<0.01, *P<0.05 by unpaired t-test as compared to vehicle treated controls. […] Corneas were injected intrastromally with 0.5 μl of peptide 95-122 at a final concentration of 10^−4 M, 10^−5 M, and 10^−6 M and vehicle (saline) control. Corneas were collected and flash frozen at 24 hours and 48 hours. Corneal lysates were analyzed for cytokines using the MILLIPLEX® MAP mouse cytokine assay for KC (A), IL-1β (B), and GM-CSF (C) (EMD Millipore Corp., Billerica, Mass.). **P<0.01, *P<0.05 by unpaired t-test as compared to vehicle treated controls."}},
  "data": [
    {"sequence": "LDREANLTSSVTILPLPLQNATVEAGTR (listed as Homo sapiens) [Peptide 95-122]", "values": [
      {"measurement": "epidermal resurfacing and maturation of the epidermis versus saline control", "setting": "[1]", "value": "greater extent of epidermal resurfacing and maturation of the epidermis"},
      {"measurement": "Histopathology Results, Mean Angiogenesis", "setting": "[1]; 3 mg/ml", "value": 2.3},
      {"measurement": "Histopathology Results, Mean Epithelization", "setting": "[1]; 3 mg/ml", "value": 4.0},
      {"measurement": "Histopathology Results, Mean Granulation", "setting": "[1]; 3 mg/ml", "value": 4.0},
      {"measurement": "Histopathology Results, Mean Inflammation", "setting": "[1]; 3 mg/ml", "value": 0.5},
      {"measurement": "GM-CSF in corneal lysates", "setting": "[2]", "value": "significantly increases"},
      {"measurement": "IFN-γ in corneal lysates", "setting": "[2]", "value": "significantly increases"},
      {"measurement": "IL-1β in corneal lysates", "setting": "[2]", "value": "significantly increases"},
      {"measurement": "IL-7 in corneal lysates", "setting": "[2]", "value": "significantly increases"},
      {"measurement": "IL-15 in corneal lysates", "setting": "[2]", "value": "significantly increases"},
      {"measurement": "KC in corneal lysates", "setting": "[2]", "value": "significantly increases"},
      {"measurement": "MIP1-0 (MIP1-β) in corneal lysates", "setting": "[2]", "value": "significantly increases"},
      {"measurement": "MIP1-α in corneal lysates", "setting": "[2]", "value": "significantly increases"}
    ]}
  ]
}
